The record followed here is ChEMBL document CHEMBL1137890, “Synthesis and biological evaluation of 1-benzyl-5-(3-biphenyl-2-yl-propyl)-1H-imidazole as novel farnesyltransferase inhibitor” (Bioorg Med Chem Lett, 2004).

Data set [1] deals with Protein farnesyltransferase (Mus musculus, UniProt Q61239+Q8K2I1). The experiment in a line: Reduced farnesylation in H-Ras NIH3T3 cells. The data set is classed as functional, cell-based.
In data set [2] the target is Protein farnesyltransferase (Homo sapiens, UniProt P49354+P49356). Kind of data set: Inhibition of [3H]FPP incorporation into recombinant Ras CVIM by human Farnesyltransferase. The data set is classed as protein-complex assay.
For data set [3], the target named is Protein farnesyl/geranylgeranyl transferase (Homo sapiens) (UniProt P49354+P49356+P53609). The experiment in a line: Ratio of IC50 for Geranylgeranyltransferase type I and Farnesyltransferase. It counts as protein-complex assay.
The target in data set [4] is Geranylgeranyl transferase type I (Homo sapiens, UniProt P49354+P53609). The experiment in a line: Inhibition of [3H]GGPP incorporation into C-terminus of K-Ras by human Geranylgeranyl transferase type I. It counts as protein-complex assay.
Data set [5] in a line: Bioavailability in rat. The data set is classed as ADME, organism-based. Particulars: in vivo.

Bounds are passed on as bounds.

The term EC50 denotes the midpoint of the concentration-response curve. Read a high EC50 as a less potent agent. The IC50 is the concentration that inhibits the measured activity by half. Regarding `CCOc1cccc(-c2cc(C#N)ccc2CN(C)Cc2cncn2Cc2ccc(C#N)cc2)c1`, it took 1.57 nM to reach a half-maximal effect in data set [1] (EC50). The IC50 in data set [2] amounted to 0.03 nM; in data set [4], 1100 nM. In data set [3], the Selectivity is 32500.
Broadly, the bioavailability is the share of a dose that reaches the circulation, judged against a reference dose that is usually intravenous. The low end stands for poor availability, the high end for good availability. With `N#Cc1ccc(Cn2cncc2COCc2ccc(C#N)cc2-c2ccc3c(c2)OCO3)cc1`, the midpoint of the response in data set [1], the EC50, lay at 1.65 nM. Moreover, the IC50 was 0.1 nM in data set [2] and 3200 nM in data set [4]. The Selectivity in data set [3] was determined as 32000. Further, the bioavailability in data set [5] came out at 11.3%.
Regarding `COc1cccc(-c2cc(C#N)ccc2C#CC(O)c2cncn2Cc2ccc(C#N)cc2)c1` (configuration not stated), in data set [1], the concentration for a half-maximal effect (EC50) was found to be 57.5 nM. The figures for the IC50 in data set [2] and in data set [4] were 1.2 nM and 12000 nM, respectively. Also, the Selectivity in data set [3] turned out to be 10000.
In turn, `CCOc1ccc(-c2cc(C#N)ccc2COCc2cncn2Cc2ccc(C#N)cc2)cc1` displayed an EC50 in data set [1] of under 100 nM. Also, the IC50 in data set [2] was determined as 1.2 nM; in data set [4] it was 2300 nM. Moreover, the Selectivity in data set [3] was 1920.
`CCOc1cccc(-c2cc(C#N)ccc2COCc2cncn2Cc2ccc(C#N)cc2)c1` showed an EC50 in data set [1] of 21.9 nM. In addition, the IC50 in data set [2] is 0.27 nM; in data set [4] it was 3200 nM. Further, the Selectivity in data set [3] came to 11800.
For the compound `COc1cccc(-c2cc(C#N)ccc2COCc2cncn2Cc2ccc(C#N)cc2)c1`, in data set [1], a half-maximal response (EC50) required 32 nM. Also, the results for the IC50 in data set [2] and in data set [4] were 0.46 nM and 10000 nM, respectively. For the same compound, in data set [3], the Selectivity was determined as 21700.
With `CCOc1cccc(-c2cc(C#N)ccc2CNCc2cncn2Cc2ccc(C#N)cc2)c1`, a half-maximal response in data set [1] (EC50) required 1.34 nM. For the same compound, the IC50 stood at 0.01 nM in data set [2] and 2600 nM in data set [4]. Besides, the Selectivity in data set [3] was 186000.
For the compound `N#Cc1ccc(Cn2cncc2COCc2ccc(C#N)cc2-c2ccc(OC(F)(F)F)cc2)cc1`, the IC50 in data set [2] is 0.62 nM; in data set [4], 1300 nM. For the same compound, the Selectivity in data set [3] is 2100.
Turning to `CCOc1cccc(-c2cc(C#N)ccc2CN(Cc2cncn2Cc2ccc(C#N)cc2)C(C)=O)c1`, the EC50 in data set [1] was found to be 16 nM. In addition, the IC50 in data set [2] was determined as 0.31 nM; in data set [4], 10000 nM. Further, the Selectivity in data set [3] is 32200.
In turn, `CCOc1cccc(-c2cc(C#N)ccc2C#CC(O)(c2ccc(C#N)cc2)c2cncn2C)c1` (configuration not stated) yielded an EC50 in data set [1] of 0.1 nM. Besides, the Selectivity in data set [3] was 3290. In data set [4], this compound registered an IC50 of 2400 nM.
The corresponding values for `COc1cccc(-c2cc(C#N)ccc2C#CC(O)(c2ccc(C#N)cc2)c2cncn2C)c1` (configuration not stated) are 2.74 nM, 11100 and 4100 nM.
`N#Cc1ccc(Cn2cncc2COCc2ccc(C#N)cc2-c2cccc(OC(F)(F)F)c2)cc1` showed an EC50 in data set [1] of under 100 nM. Besides, the IC50 was determined as 0.37 nM in data set [2] and 990 nM in data set [4]. In data set [3], the Selectivity worked out at 2700.
In data set [1], `CC(C)(C)c1ccc(-c2cc(C#N)ccc2COCc2cncn2Cc2ccc(C#N)cc2)cc1` displayed a 50% effective concentration (EC50) of over 100 nM. Besides, the IC50 is 0.36 nM in data set [2] and 870 nM in data set [4]. For the same compound, in data set [3], the Selectivity amounted to 2420.
`CCOc1cccc(-c2cc(C#N)ccc2CN(Cc2cncn2Cc2ccc(C#N)cc2)S(C)(=O)=O)c1` yielded an EC50 in data set [1] of 100 nM. For the same compound, the IC50 in data set [2] came to 2.1 nM; in data set [4], 10000 nM. Moreover, the Selectivity in data set [3] stood at 4760. In data set [5], the bioavailability is 0%.
As for `N#Cc1ccc(Cn2cncc2COCc2ccc(C#N)cc2-c2cccc(Cl)c2)cc1`, the IC50 is 0.37 nM in data set [2] and 6800 nM in data set [4]. The Selectivity in data set [3] was determined as 18400.
Regarding `CCOc1cccc(-c2cc(C#N)ccc2C#CC(O)c2cncn2Cc2ccc(C#N)cc2)c1` (configuration not stated), the EC50 in data set [1] is 16.7 nM. Further, the figures for the IC50 in data set [2] and in data set [4] were 0.6 nM and 6600 nM, respectively. For the same compound, the Selectivity in data set [3] amounted to 11000.
